# Results: patent publication US9901592B2 (priority 2008, dated 2018)
# Where “and” joins values, the source holds several entries; their conditions need not be identical. Equal values may be shown once. Read-outs that look alike come from different tables or passages of the source.
# Columns and labels:
# pneumococci = assay: microbe, parasite or virus in culture; format: cell-based, S. pneumoniae
# [1] = tested on: intraphagocytic L. pneumophila ATCC 33153 (THP-1); format: cell-based; conditions: intracellular L. pneumophila ATCC 33153
# U. urealyticum = assay: MIC testing in 10B broth (colour change); format: cell-based; conditions: U. urealyticum (10 isolates)
# M. pneumoniae = assay: microbe, parasite or virus in culture; format: cell-based; conditions: Mycoplasmoides pneumoniae
# M. catarrhalis = assay: microbe, parasite or virus in culture; format: cell-based; conditions: Moraxella catarrhalis
# M. hominis = format: cell-based; conditions: M. hominis (13 isolates)
# S. pyogenes = assay: mouse systemic infection model (PD50); format: in vivo
# M. genitalium = format: cell-based; conditions: M. genitalium (5 isolates)
# S. pneumoniae [2] = assay: neutropenic mouse thigh infection; format: in vivo; conditions: PO
# Method: Example. Neutropenic Mouse Thigh Infection. Mice were rendered neutropenic with IP injections of cyclophosamide at day −4 and day −1 of 150 mg/Kg and 100 mg/Kg, respectively. On day 0 mice were infected with approximately 5×10^5 CFU/ml of bacteria in a 0.1 ml volume into the right thigh. At 1.5 hours post infection mice received treatment via oral gavage. One group of infected mice were euthanized and thigh processed for bacterial titers to serve as T=0 controls. Twenty-four hours post treatment, the remaining mice were euthanized, thighs aseptically removed, weighed, homogenized, serially diluted and plated on bacterial growth media. CFUs per gram of thigh were calculated after overnight incubation of bacterial plates. The amount of test article required to achieve 1, 2, and 3 loge reductions from 24 hour control thighs were calculated. Additional studies were performed that fractionated the single treatment dose (Q24) into two (Q12), three (Q8) and four (Q6) equivalent doses to determine the pharmacodynamic nature of this compound. Further analysis includes static dose, EC50, 1 log kill and maximal effect (Emax).
# S. pneumoniae [3] = assay: mouse systemic infection model (PD50); format: in vivo
# S. pneumoniae [4] = assay: microbe, parasite or virus in culture; format: cell-based; conditions: for MIC: Streptococcus pneumoniae
# [5] = Streptococcus pneumoniae, pneumococci, L4 mutations (27)
smiles,measurement,setting,value
"CC[C@H]1OC(=O)[C@H](C)C(=O)[C@H](C)[C@@H](O[C@@H]2O[C@H](C)C[C@H](N(C)C)[C@H]2O)[C@](C)(OC)C[C@@H](C)C(=O)[C@H](C)[C@H]2N(CCCCn3cnc(-c4cccnc4)c3)C(=O)O[C@]12C [TEL, telithromycin]",MIC Range,pneumococci,0.03 to 2 µg/mL
same,MIC range,pneumococci,0.015 to 1 µg/mL and 0.03 to 2 µg/mL and 0.03 to 0.5 µg/mL and 0.03 to 0.06 µg/mL
same,MIC50,pneumococci; [5],0.125 µg/mL
same,MIC90,pneumococci; [5],0.25 µg/mL
same,MIC,"pneumococci; Streptococcus pneumoniae, read-out: MIC range",0.015 to 0.03 µg/mL
same,MIC,"pneumococci; Streptococcus pneumoniae, read-out: MIC range, pneumococci, L4 mutations (27)",0.06 to 0.25 µg/mL
same,"Cs, static concentration",[1],0.06 mg/L
same,MIC Range,U. urealyticum,0.016 to 0.25 µg/mL
same,MIC50,U. urealyticum; Ureaplasma urealyticum,0.063 µg/mL
same,MIC90,U. urealyticum; Ureaplasma urealyticum,0.25 µg/mL
same,MIC50,M. pneumoniae,0.00025 µg/mL
same,MIC90,M. pneumoniae,0.001 µg/mL
same,MIC50,M. catarrhalis,0.12 µg/mL
same,MIC90,M. catarrhalis,0.25 µg/mL
same,MIC Range,M. hominis,0.125 to 0.5 µg/mL
same,MIC50,"M. hominis; Metamycoplasma hominis, read-out: MIC50",0.25 µg/mL
same,MIC90,"M. hominis; Metamycoplasma hominis, read-out: MIC90",0.5 µg/mL
same,PD50,S. pyogenes; S. pyogenes (erythromycin R),4.4 mg/kg
same,PD50,S. pyogenes; S. pyogenes (macrolide susceptible),7.8 mg/kg
same,MIC Range,M. genitalium,≦0.00003-0.00025 μg/mL
same,Max. change in log10CFUs from 24 hr. controls,S. pneumoniae [2]; S. pneumoniae 1629,−6.82 log10CFUs
same,Dose for 2 log10 Reduction from 24 hour controls,"S. pneumoniae [2]; S. pneumoniae 1629, QD",13.2 mg/Kg
same,Max. change in log10CFUs from 24 hr. controls,S. pneumoniae [2]; S. pneumoniae 6303,−5.27 log10CFUs
same,PD50,S. pneumoniae [3]; S. pneumoniae (macrolide susceptible),19.9 mg/kg
same,PD50,S. pneumoniae [3]; S. pneumoniae (mefR),10.6 mg/kg
same,PD50,S. pneumoniae [3]; S. pneumoniae serotype 19A,5.7 mg/kg
same,strains with resistant clones / strains tested,S. pneumoniae [4]; S. pneumoniae,5/8
same,MIC,"S. pneumoniae [4]; read-out: Initial MIC, strain 24 Macrolide-R [erm(B)], parent",0.25 µg/mL
same,MIC,"S. pneumoniae [4]; read-out: Initial MIC, strain 1076 Macrolide-R [erm(B)&mef(A)], parent",0.5 µg/mL
same,MIC,"S. pneumoniae [4]; read-out: Initial MIC, strain 1077 Macrolide-S, parent",0.004 µg/mL
same,MIC,"S. pneumoniae [4]; read-out: Initial MIC, strain 1635 Macrolide-R [erm(A)], parent",0.004 µg/mL
same,MIC,"S. pneumoniae [4]; read-out: Initial MIC, strain 2686 Macrolide-R [L4 mutation], parent",0.06 µg/mL
same,MIC,"S. pneumoniae [4]; read-out: Initial MIC, strain 3009 Macrolide-R [23SrRNA mutation], parent",0.016 µg/mL
same,MIC,"S. pneumoniae [4]; read-out: Initial MIC, strain 3665 Macrolide-R [mef(A)], parent",0.125 µg/mL
same,MIC,"S. pneumoniae [4]; read-out: Initial MIC, strain 7127 Macrolide-S [S20N in L4, A105V in L22], parent",0.008 µg/mL
same,MIC,"S. pneumoniae [4]; read-out: MIC of parents of resistant clones, S. pneumoniae (CEM-101: 7 strains)",0.004 to 0.5 µg/mL
same,MIC,"S. pneumoniae [4]; read-out: Parental MICs, S. pneumoniae, 8 strains with varying resistotypes",0.004 to 0.5 µg/mL
same,MIC,"S. pneumoniae [4]; read-out: Selected Resistance MIC, strain 24 Macrolide-R [erm(B)], after serial passages in the drug",32 µg/mL
same,MIC,"S. pneumoniae [4]; read-out: Selected Resistance MIC, strain 1076 Macrolide-R [erm(B)&mef(A)], after serial passages in the drug",> 64 µg/mL
same,MIC,"S. pneumoniae [4]; read-out: Selected Resistance MIC, strain 1077 Macrolide-S, after serial passages in the drug",0.25 µg/mL
same,MIC,"S. pneumoniae [4]; read-out: Selected Resistance MIC, strain 1635 Macrolide-R [erm(A)], after serial passages in the drug",0.008 µg/mL
same,MIC,"S. pneumoniae [4]; read-out: Selected Resistance MIC, strain 2686 Macrolide-R [L4 mutation], after serial passages in the drug",0.5 µg/mL
same,MIC,"S. pneumoniae [4]; read-out: Selected Resistance MIC, strain 3009 Macrolide-R [23SrRNA mutation], after serial passages in the drug",0.03 µg/mL
same,MIC,"S. pneumoniae [4]; read-out: Selected Resistance MIC, strain 3665 Macrolide-R [mef(A)], after serial passages in the drug",2 µg/mL
same,MIC,"S. pneumoniae [4]; read-out: Selected Resistance MIC, strain 7127 Macrolide-S [S20N in L4, A105V in L22], after serial passages in the drug",0.06 µg/mL
same,days until resistant clones (MIC increase),"S. pneumoniae [4]; daily passages, min. 14, max. 50",14 to 38 days
same,Retest MIC after 10 Antibiotic-free Subcultures,"S. pneumoniae [4]; strain 24 Macrolide-R [erm(B)], clone selected with CEM-101",0.125 µg/mL
same,Retest MIC after 10 Antibiotic-free Subcultures,"S. pneumoniae [4]; strain 24 Macrolide-R [erm(B)], clone selected with TEL",16 µg/mL
same,Retest MIC after 10 Antibiotic-free Subcultures,"S. pneumoniae [4]; strain 1076 Macrolide-R [erm(B)&mef(A)], clone selected with CEM-101",32 µg/mL
